{
  "source": "patent EP0083683A1",
  "about": "“Method of preparing 1,4-bis(substituted-amino)-5,8-dihydroxyanthraquinones and pharmaceutical compositions containing them” (AMERICAN CYANAMID COMPANY, priority 1981, dated 1983)",
  "key": {"[1]": {"system": "lymphocytic leukemia P388", "assay": "Lymphocytic leukemia P388 test", "assay_type": "in vivo, DBA/2 mice", "procedure": "The animals used are DBA/2 mice all of one sex, weighing a minimum of 17 g. and all within a 3 g. weight range. There are 5 or 6 animals per test group. The tumor transplant is by intraperitoneal injection of 0.5 ml. of dilute ascitic fluid containing 10^6 cells of lymphocytic leukemia P388. The test compounds are administered intraperitoneally on days one, 5 and 9 (relative to tumor inoculation) at various doses. […] The median survival time and the ratio of survival time for treated (T)/control (C) animals are calculated. The positive control compound is 5-fluorouracil given as a 60 mg./kg. injection. The results of this test with representative compounds of the present invention appear in Table I. The criterion for efficacy is T/C x 100>125%."}, "[2]": {"system": "melanotic melanoma B16", "assay": "Melanotic Melanoma B16 test", "assay_type": "in vivo, BDF1 mice", "procedure": "The animals used are BDF1 mice, all of the same sex, weighing a minimum of 17 g. and all within a 3 g. weight range. There are normally 10 animals per test group. A one-gram portion of melanotic melanoma B16 tumor is homogenized in 10 ml. of cold balanced salt solution and a 0.5 ml. aliquot of the homogenate is implanted intraperitoneally into each of the test mice. The test compounds are administered intraperitoneally on days one through 9 (relative to tumor inoculation) at various doses. The animals are weighed and survivors are recorded on a regular basis for 60 days. The median survival time and the ratio of survival time for treated (T)/control (C) animals are calculated. The positive control compound is 5-fluorouracil given as a 20 mg./kg. injection. The criterion for efficacy is T/C x 100 >125%."}, "[3]": {"conditions": "1st test, dose 0.78 mg./kg. intraperitoneally on days 1, 5 and 9"}, "[4]": {"conditions": "1st test, dose 1.56 mg./kg. intraperitoneally on days 1, 5 and 9"}, "[5]": {"conditions": "1st test, dose 3.12 mg./kg. intraperitoneally on days 1, 5 and 9"}, "[6]": {"conditions": "1st test, dose 6.25 mg./kg. intraperitoneally on days 1, 5 and 9"}, "[7]": {"conditions": "2nd test, dose 0.10 mg./kg. intraperitoneally on days 1, 5 and 9"}, "[8]": {"conditions": "2nd test, dose 0.19 mg./kg. intraperitoneally on days 1, 5 and 9"}, "[9]": {"conditions": "2nd test, dose 0.39 mg./kg. intraperitoneally on days 1, 5 and 9"}, "[10]": {"conditions": "2nd test, dose 0.78 mg./kg. intraperitoneally on days 1, 5 and 9"}, "[11]": {"conditions": "2nd test, dose 1.56 mg./kg. intraperitoneally on days 1, 5 and 9"}, "[12]": {"conditions": "2nd test, dose 3.12 mg./kg. intraperitoneally on days 1, 5 and 9"}, "[13]": {"conditions": "2nd test, dose 6.25 mg./kg. intraperitoneally on days 1, 5 and 9"}, "[14]": {"conditions": "dose 0.09 mg./kg. intraperitoneally on days one through 9"}, "[15]": {"conditions": "dose 0.19 mg./kg. intraperitoneally on days one through 9"}, "[16]": {"conditions": "dose 0.37 mg./kg. intraperitoneally on days one through 9"}, "[17]": {"conditions": "dose 0.75 mg./kg. intraperitoneally on days one through 9"}, "[18]": {"conditions": "dose 1.5 mg./kg. intraperitoneally on days one through 9"}, "[19]": {"conditions": "1st test, positive control, dose 60 mg./kg."}, "[20]": {"conditions": "2nd test, positive control, dose 60 mg./kg."}, "[21]": {"conditions": "positive control, dose 20.0 mg./kg."}},
  "data": [
    {"smiles": "O=C1c2c(O)ccc(O)c2C(=O)c2c(NCCN3CCOC3)ccc(NCCN3CCOC3)c21", "note": "[l,4-Dihydroxy-5,8-bis[[2-(3-oxazolidinyl)ethyl]amino]-anthraquinone]", "values": [
      {"measurement": "Median Survival Time", "setting": "[1]; [3]", "result": 23.0, "unit": "days"},
      {"measurement": "T/C x 100 (Percent)", "setting": "[1]; [3]", "result": 209, "unit": "%"},
      {"measurement": "Median Survival Time", "setting": "[1]; [4]", "result": 23.5, "unit": "days"},
      {"measurement": "T/C x 100 (Percent)", "setting": "[1]; [4]", "result": 214, "unit": "%"},
      {"measurement": "\"Cures\" = number of survivors/total at 60 days", "setting": "[1]; [5]", "result": "1/6"},
      {"measurement": "Median Survival Time", "setting": "[1]; [5]", "result": 29.5, "unit": "days"},
      {"measurement": "T/C x 100 (Percent)", "setting": "[1]; [5]", "result": 268, "unit": "%"},
      {"measurement": "\"Cures\" = number of survivors/total at 60 days", "setting": "[1]; [6]", "result": "2/6"},
      {"measurement": "Median Survival Time", "setting": "[1]; [6]", "result": ">30.0", "unit": "days"},
      {"measurement": "T/C x 100 (Percent)", "setting": "[1]; [6]", "result": ">273", "unit": "%"},
      {"measurement": "Median Survival Time", "setting": "[1]; [7]", "result": 19.5, "unit": "days"},
      {"measurement": "T/C x 100 (Percent)", "setting": "[1]; [7]", "result": 177, "unit": "%"},
      {"measurement": "Median Survival Time", "setting": "[1]; [8]", "result": 23.5, "unit": "days"},
      {"measurement": "T/C x 100 (Percent)", "setting": "[1]; [8]", "result": 214, "unit": "%"},
      {"measurement": "Median Survival Time", "setting": "[1]; [9]", "result": 23.5, "unit": "days"},
      {"measurement": "T/C x 100 (Percent)", "setting": "[1]; [9]", "result": 214, "unit": "%"},
      {"measurement": "Median Survival Time", "setting": "[1]; [10]", "result": 22.0, "unit": "days"},
      {"measurement": "T/C x 100 (Percent)", "setting": "[1]; [10]", "result": 200, "unit": "%"},
      {"measurement": "\"Cures\" = number of survivors/total at 60 days", "setting": "[1]; [11]", "result": "1/6"},
      {"measurement": "Median Survival Time", "setting": "[1]; [11]", "result": 30.0, "unit": "days"},
      {"measurement": "T/C x 100 (Percent)", "setting": "[1]; [11]", "result": 273, "unit": "%"},
      {"measurement": "Median Survival Time", "setting": "[1]; [12]", "result": ">30.0", "unit": "days"},
      {"measurement": "T/C x 100 (Percent)", "setting": "[1]; [12]", "result": ">273", "unit": "%"},
      {"measurement": "Median Survival Time", "setting": "[1]; [13]", "result": 14.0, "unit": "days"},
      {"measurement": "T/C x 100 (Percent)", "setting": "[1]; [13]", "result": 127, "unit": "%"},
      {"measurement": "Median Survival Time", "setting": "[2]; [14]", "result": 29.0, "unit": "days"},
      {"measurement": "T/C x 100 (Percent)", "setting": "[2]; [14]", "result": 153, "unit": "%"},
      {"measurement": "Median Survival Time", "setting": "[2]; [15]", "result": 31.0, "unit": "days"},
      {"measurement": "T/C x 100 (Percent)", "setting": "[2]; [15]", "result": 163, "unit": "%"},
      {"measurement": "Median Survival Time", "setting": "[2]; [16]", "result": 49.5, "unit": "days"},
      {"measurement": "T/C x 100 (Percent)", "setting": "[2]; [16]", "result": 260, "unit": "%"},
      {"measurement": "Median Survival Time", "setting": "[2]; [17]", "result": 46.0, "unit": "days"},
      {"measurement": "T/C x 100 (Percent)", "setting": "[2]; [17]", "result": 242, "unit": "%"},
      {"measurement": "Median Survival Time", "setting": "[2]; [18]", "result": 55.5, "unit": "days"},
      {"measurement": "T/C x 100 (Percent)", "setting": "[2]; [18]", "result": 292, "unit": "%"}
    ]},
    {"smiles": "O=c1[nH]cc(F)c(=O)[nH]1", "note": "[5-Fluorouracil, 5-fluorouracil, reference compound]", "values": [
      {"measurement": "Median Survival Time", "setting": "[1]; [19]", "result": 21.0, "unit": "days"},
      {"measurement": "T/C x 100 (Percent)", "setting": "[1]; [19]", "result": 191, "unit": "%"},
      {"measurement": "Median Survival Time", "setting": "[1]; [20]", "result": 21.5, "unit": "days"},
      {"measurement": "T/C x 100 (Percent)", "setting": "[1]; [20]", "result": 195, "unit": "%"},
      {"measurement": "Median Survival Time", "setting": "[2]; [21]", "result": 26.0, "unit": "days"},
      {"measurement": "T/C x 100 (Percent)", "setting": "[2]; [21]", "result": 137, "unit": "%"}
    ]}
  ]
}
